# Reference: patent US20260008787A1, “FUSED RING KRAS INHIBITORS FOR TREATING DISEASE” (BLOSSOMHILL THERAPEUTICS, INC., priority 2022, published 2026)
# How the values were obtained:
# KRAS G12V = KRAS G12V (Homo sapiens, UniProt P01116, G12V); experiment: biochemical
# SW620 (KRAS G12V) = experiment: Cell proliferation assay (CellTiter-Glo, 72 hours), SW620; assay type: cell-based; conditions: 384-well, CellTiter-Glo 2.0
# Description: (§1) Two thousand KRAS mutant cells per well were seeded in 384-well white plate and then treated with indicated compounds for 72 hours at 37° C. and 5% CO2. Cell proliferation was measured using CellTiter-Glo 2.0 luciferase-based ATP detection assay (Promega, Madison, WI) following the manufacturer's protocol. IC50 values were determined using Prism software (GraphPad Software, San Diego, CA).
# GP2D (KRAS G12D) = experiment: Cell proliferation assay (CellTiter-Glo, 72 hours), GP2D; assay type: cell-based; conditions: 384-well, CellTiter-Glo 2.0
# Description: as §1
# KRAS G12D = KRAS G12D (Homo sapiens, UniProt P01116, G12D); experiment: biochemical
# AGS (G12D) = experiment: Cell proliferation assay (CellTiter-Glo, 72 hours), AGS; assay type: cell-based; conditions: 384-well, CellTiter-Glo 2.0
# Description: as §1
# Sequence of KRAS G12D (P01116 1-188 isoform P01116-2 G12D): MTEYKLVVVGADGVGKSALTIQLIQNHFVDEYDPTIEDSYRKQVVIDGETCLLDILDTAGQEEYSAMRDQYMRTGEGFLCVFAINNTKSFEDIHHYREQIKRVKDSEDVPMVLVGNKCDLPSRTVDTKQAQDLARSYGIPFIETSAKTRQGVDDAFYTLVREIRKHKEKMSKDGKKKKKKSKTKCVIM
# Sequence of KRAS G12V (P01116 1-188 isoform P01116-2 G12V): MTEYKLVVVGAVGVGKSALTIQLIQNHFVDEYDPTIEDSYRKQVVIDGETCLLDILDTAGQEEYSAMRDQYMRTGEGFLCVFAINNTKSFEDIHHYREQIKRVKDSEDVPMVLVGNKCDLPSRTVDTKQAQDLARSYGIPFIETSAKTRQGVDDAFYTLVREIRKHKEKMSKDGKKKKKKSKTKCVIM
structure (smiles),measurement,setting,value
"Fc1c(-c2c(Cl)ccc3[nH]nc(Cl)c23)nc2c3c(nc(OC[C@@]45CCCN4C[C@H](F)C5)nc13)N1CCCC[C@H]1CO2 (atropisomer, axis not shown) [Example 83, (7S)-12-(3,5-dichloro-1H-indazol-4-yl)-13-fluoro-16-[[(2R,8S)-2-fluoro-1,2,3,5,6,6-4hexahydropyrrolizin-8-yl]methoxy]-9-oxa-2,11,15,17-tetrazatetracyclo[8.7.1.02,7.014,18]octadeca-1 (17),10 (18),11,13,15-pentaene]",IC50,KRAS G12V,59.3 nM
same,IC50,"SW620 (KRAS G12V); Homo sapiens, SW-620, 72 h",> 3000 nM
same,IC50,GP2D (KRAS G12D),1080 nM
same,IC50,KRAS G12D,60.4 nM
same,IC50,AGS (G12D); 72 h,> 3000 nM
"Fc1c(-c2c(Cl)ccc3[nH]nc(Cl)c23)nc2c3c(nc(OC[C@@]45CCCN4C[C@H](F)C5)nc13)N1CCCC[C@H]1CO2 (atropisomer, axis not shown) [Example 84, (7S)-12-(3,5-dichloro-1H-indazol-4-yl)-13-fluoro-16-[[(2R,8S)-2-fluoro-1,2,3,5,6,7-hexahydropyrrolizin-8-yl]methoxy]-9-oxa-2,11,15,17-tetrazatetracyclo[8.7.1.02, 7.014,18]octadeca-1 (17),10 (18),11,13,15-pentaene]",IC50,KRAS G12V,48 nM
same,IC50,SW620 (KRAS G12V),> 3000 nM
same,IC50,GP2D (KRAS G12D),> 3000 nM
same,IC50,KRAS G12D,54.5 nM
same,IC50,AGS (G12D),> 3000 nM
"Nc1nc2c(-c3nc4c5c(nc(OC[C@@]67CCCN6C[C@H](F)C7)nc5c3F)N3CCCC[C@H]3CO4)ccc(F)c2s1 [Example 40, 7-fluoro-4-[(8aS)-4-fluoro-2-{[(2R,7aS)-2-fluorotetrahydro-1H-pyrrolizin-7a(5H)-yl]methoxy}-8,8a,9,10,11,12-hexahydro-7-oxa-1,3,6,12a-tetraazabenzo[4,5]cyclohepta[1,2,3-de]naphthalen-5-yl]-1,3-benzothiazol-2-amine]",IC50,KRAS G12V,28.2 nM
same,IC50,"SW620 (KRAS G12V); Homo sapiens, SW-620, 72 h",> 3000 nM
same,IC50,"GP2D (KRAS G12D); GP2d, 72 h",> 3000 nM
same,IC50,KRAS G12D,30.1 nM
same,IC50,AGS (G12D); 72 h,> 3000 nM
"Cc1cc(N)nc(-c2nc3c4c(nc(OC[C@@]56CCCN5C[C@H](F)C6)nc4c2F)N2CCCC[C@H]2CO3)c1C(F)(F)F [Example 43, 6-[(8aS)-4-fluoro-2-{[(2R,7aS)-2-fluorotetrahydro-1H-pyrrolizin-7a(5H)-yl]methoxy}-8,8a,9,10,11,12-hexahydro-7-oxa-1,3,6,12a-tetraazabenzo[4,5]cyclohepta[1,2,3-de]naphthalen-5-yl]-4-methyl-5-(trifluoromethyl)pyridin-2-amine]",IC50,KRAS G12V,12.7 nM
same,IC50,"SW620 (KRAS G12V); Homo sapiens, SW-620, 72 h",> 3000 nM
same,IC50,"GP2D (KRAS G12D); GP2d, 72 h",2120 nM
same,IC50,KRAS G12D,16.3 nM
same,IC50,AGS (G12D); 72 h,> 3000 nM
"C#Cc1c(F)ccc2cc(O)cc(-c3cc4c5c(nc(OC[C@@]67CCCN6C[C@H](F)C7)nc5c3F)N3CCCC[C@H]3CO4)c12 [Example 45, 5-ethynyl-6-fluoro-4-[(8aS)-4-fluoro-2-{[(2R,7aS)-2-fluorotetrahydro-1H-pyrrolizin-7a(5H)-yl]methoxy}-8,8a,9,10,11,12-hexahydropyrido[2′,1′:3,4][1,4]oxazepino[5,6,7-de]quinazolin-5-yl]naphthalen-2-ol]",IC50,KRAS G12V,2.33 nM
same,IC50,"SW620 (KRAS G12V); Homo sapiens, SW-620, 72 h",321 nM
same,IC50,"GP2D (KRAS G12D); GP2d, 72 h",361 nM
same,IC50,KRAS G12D,3.28 nM
same,IC50,AGS (G12D); 72 h,621 nM
"C#Cc1c(F)ccc2cc(O)cc(-c3nc4c5c(nc(OC[C@@]67CCCN6C[C@H](F)C7)nc5c3F)N[C@@H](C)CO4)c12 [Example 46, 5-ethynyl-6-fluoro-4-[(9S)-4-fluoro-2-{[(2R,7aS)-2-fluorotetrahydro-1H-pyrrolizin-7a(5H)-yl]methoxy}-9-methyl-9,10-dihydro-8H-7-oxa-1,3,6,10-tetraazacyclohepta[1,2,3-de]naphthalen-5-yl]naphthalen-2-ol]",IC50,KRAS G12V,1.71 nM
same,IC50,"SW620 (KRAS G12V); Homo sapiens, SW-620, 72 h",414 nM
same,IC50,"GP2D (KRAS G12D); GP2d, 72 h",74.8 nM
same,IC50,KRAS G12D,2.1 nM
same,IC50,AGS (G12D); 72 h,193 nM
"C#Cc1c(F)ccc2cc(O)cc(-c3nc4c5c(nc(OC[C@@]67CCCN6C[C@H](F)C7)nc5c3F)N(C)[C@@H](C)CO4)c12 [Example 50, 5-ethynyl-6-fluoro-4-[(9S)-4-fluoro-2-{[(2R,7aS)-2-fluorotetrahydro-1H-pyrrolizin-7a(5H)-yl]methoxy}-9,10-dimethyl-9,10-dihydro-8H-7-oxa-1,3,6,10-tetraazacyclohepta[1,2,3-de]naphthalen-5-yl]naphthalen-2-ol]",IC50,KRAS G12V,1.99 nM
same,IC50,"SW620 (KRAS G12V); Homo sapiens, SW-620, 72 h",25.7 nM
same,IC50,"GP2D (KRAS G12D); GP2d, 72 h",8.94 nM
same,IC50,KRAS G12D,1.71 nM
same,IC50,AGS (G12D); 72 h,28.4 nM
"C#Cc1c(F)ccc2cc(O)cc(-c3nc4c5c(nc(OC[C@@]67CCCN6C/C(=C\F)C7)nc5c3F)N3CCCC[C@H]3CO4)c12 [Example 52, 5-ethynyl-6-fluoro-4-[(8aS)-4-fluoro-2-{[(2Z,7aS)-2-(fluoromethylidene)tetrahydro-1H-pyrrolizin-7a(5H)-yl]methoxy}-8,8a,9,10,11,12-hexahydro-7-oxa-1,3,6,12a-tetraazabenzo[4,5]cyclohepta[1,2,3-de]naphthalen-5-yl]naphthalen-2-ol]",IC50,KRAS G12V,2.22 nM
same,IC50,"SW620 (KRAS G12V); Homo sapiens, SW-620, 72 h",9.2 nM
same,IC50,"GP2D (KRAS G12D); GP2d, 72 h",1.75 nM
same,IC50,KRAS G12D,2.26 nM
same,IC50,AGS (G12D); 72 h,7.7 nM
"C#Cc1c(F)ccc2cc(O)cc(-c3nc4c5c(nc(OC[C@@]67CCCN6C[C@H](F)C7)nc5c3F)N3[C@@H](COC[C@@H]3C)CO4)c12 [Example 59, 5-ethynyl-6-fluoro-4-[(8aS,12S)-4-fluoro-2-{[(2R,7aS)-2-fluorotetrahydro-1H-pyrrolizin-7a(5H)-yl]methoxy}-12-methyl-8a,9,11,12-tetrahydro-8H-7,10-dioxa-1,3,6,12a-tetraazabenzo[4,5]cyclohepta[1,2,3-de]naphthalen-5-yl]naphthalen-2-ol]",IC50,KRAS G12V,3.08 nM
same,IC50,"SW620 (KRAS G12V); Homo sapiens, SW-620, 72 h",77.2 nM
same,IC50,"GP2D (KRAS G12D); GP2d, 72 h",12.4 nM
same,IC50,KRAS G12D,2.66 nM
same,IC50,AGS (G12D); 72 h,70.6 nM
"C#Cc1c(F)ccc2cc(O)cc(-c3nc4c5c(nc(OC[C@@]67CCCN6C[C@H](F)C7)nc5c3F)N(Cc3ccccc3)CCC4)c12 [Example 112, 4-[13-benzyl-6-fluoro-3-[[(2R,8S)-2-fluoro-1,2,3,5,6,7-hexahydropyrrolizin-8-yl]methoxy]-2,4,8,13-tetrazatricyclo [7.4.1.05,14]tetradeca-1,3,5,7,9 (14)-pentaen-7-yl]-5-ethynyl-6-fluoro-naphthalen-2-ol]",IC50,KRAS G12V,40.1 nM
same,IC50,"GP2D (KRAS G12D); GP2d, 72 h",> 3000 nM
same,IC50,KRAS G12D,321 nM
same,IC50,AGS (G12D); 72 h,> 3000 nM
CCc1c(F)ccc2cc(O)cc(-c3nc4c5c(nc(OC[C@@]67CCCN6C[C@H](F)C7)nc5c3F)N3CCC[C@](C)(O)[C@@H]3CO4)c12 [Example 114],IC50,KRAS G12V,1200 nM
same,IC50,"GP2D (KRAS G12D); GP2d, 72 h",> 3000 nM
same,IC50,KRAS G12D,929 nM
same,IC50,AGS (G12D); 72 h,> 3000 nM
"CC[C@H]1COc2nc(-c3cc(O)cc4ccc(F)c(F)c34)c(F)c3nc(OC[C@@]45CCCN4C[C@H](F)C5)nc(c23)N1C [Example 115, 4-[(9S)-9-ethyl-4-fluoro-2-{[(2R,7aS)-2-fluorotetrahydro-1H-pyrrolizin-7a(5H)-yl]methoxy}-10-methyl-9,10-dihydro-8H-7-oxa-1,3,6,10-tetraazacyclohepta[1,2,3-de]naphthalen-5-yl]-5,6-difluoronaphthalen-2-ol]",IC50,KRAS G12V,2.4 nM
same,IC50,"GP2D (KRAS G12D); GP2d, 72 h",106 nM
same,IC50,KRAS G12D,2.61 nM
same,IC50,AGS (G12D); 72 h,352 nM
"CC[C@H]1COc2nc(-c3cccc4sc(N)c(C#N)c34)c(F)c3nc(OC[C@@]45CCCN4C[C@H](F)C5)nc(c23)N1C [Example 116, 2-amino-4-[(9S)-9-ethyl-4-fluoro-2-{[(2R,7aS)-2-fluorotetrahydro-1H-pyrrolizin-7a(5H)-yl]methoxy}-10-methyl-9,10-dihydro-8H-7-oxa-1,3,6,10-tetraazacyclohepta[1,2,3-de]naphthalen-5-yl]-1-benzothiophene-3-carbonitrile]",IC50,KRAS G12V,6.41 nM
same,IC50,"GP2D (KRAS G12D); GP2d, 72 h",760 nM
same,IC50,KRAS G12D,14.2 nM
same,IC50,AGS (G12D); 72 h,> 3000 nM
"CCc1c(F)ccc2cc(O)cc(-c3nc4c5c(nc(OC[C@@]67CCCN6C[C@H](F)C7)nc5c3F)N(C)C3(CCOC3)CO4)c12 (stereo partly drawn) [Example 132, 5-ethyl-6-fluoro-4-(4-fluoro-2-{[(2R,7aS)-2-fluorotetrahydro-1H-pyrrolizin-7a(5H)-yl]methoxy}-10-methyl-8H,10H-spiro[7-oxa-1,3,6,10-tetraazacyclohepta[1,2,3-de]naphthalene-9,3′-oxolan]-5-yl)naphthalen-2-ol]",IC50,"SW620 (KRAS G12V); Homo sapiens, SW-620, 72 h",1380 nM
same,IC50,"GP2D (KRAS G12D); GP2d, 72 h",> 3000 nM
same,IC50,AGS (G12D); 72 h,> 3000 nM
"C#Cc1c(F)ccc2cc(O)cc(-c3nc4c5c(nc(OC[C@@]67CCCN6C[C@H](F)C7)nc5c3F)N(CC(F)(F)F)[C@@H](C)CO4)c12 [Example 133, 5-ethynyl-6-fluoro-4-((S)-4-fluoro-2-(((2R,7aS)-2-fluorotetrahydro-1H-pyrrolizin-7a(5H)-yl)methoxy)-9-methyl-10-(2,2,2-trifluoroethyl)-9,10-dihydro-8H-7-oxa-1,3,6,10-tetraazacyclohepta[de]naphthalen-5-yl)naphthalen-2-ol]",IC50,"SW620 (KRAS G12V); Homo sapiens, SW-620, 72 h",25.8 nM
same,IC50,"GP2D (KRAS G12D); GP2d, 72 h",21.3 nM
same,IC50,AGS (G12D); 72 h,49.9 nM
"CCc1c(F)ccc2cc(O)cc(-c3nc4c5c(nc(OC[C@@]67CCCN6C[C@H](F)C7)nc5c3F)N3CCC[C@@](C)(O)[C@H]3CO4)c12 [compound 3, (8aR,9R)-5-(8-ethyl-7-fluoro-3-hydroxynaphthalen-1-yl)-4-fluoro-2-{[(2R,7aS)-2-fluorotetrahydro-1H-pyrrolizin-7a(5H)-yl]methoxy}-9-methyl-8,8a,9,10,11,12-hexahydro-7-oxa-1,3,6,12a-tetraazabenzo[4,5]cyclohepta[1,2,3-de]naphthalen-9-ol]",IC50,KRAS G12V,1.85 nM
same,IC50,"GP2D (KRAS G12D); GP2d, 72 h",15.5 nM
same,IC50,KRAS G12D,1.66 nM
same,IC50,AGS (G12D); 72 h,57.5 nM
